A short description of test [1]: vps1Δ apl2Δ double mutant yeast growth inhibitors – S. cerevisiae, background strain comparison, post-Golgi transport modulator project, dose response (AID 788). Conditions: S. cerevisiae vps1Δ apl2Δ growth inhibition, dose response; at 25 µM (top of the series).
Test [2] relates to S. cerevisiae vps1Δ apl2Δ growth inhibition, dose response. The description is as above.
In test [3] the test system is S. cerevisiae wild-type background strain growth inhibition. The description is as above. Conditions: S. cerevisiae vps1Δ apl2Δ growth inhibition, dose response; measured here: wild-type background strain growth.

Consider 25 compounds from PubChem BioAssay AID788 (SRMLSC, 2007).

Active and inactive are the calls of the source. The rule behind the calls is not given here.

In the case of `O=C(Nc1nnc(-c2cccs2)o1)c1cccc(C(F)(F)F)c1`, the growth inhibition in test [1] is 36.6% (inactive). Consider `Cc1c(C)c2cc(Cl)c(O)c(CN3CCN(C)CC3)c2oc1=O`, for which the IC50 – broadly, the midpoint of a concentration-inhibition curve – in test [2] is > 10 µM (inactive); in test [3] it was above 10 µM.

In the case of `Cc1cccc(-n2c(N)c(C(=O)NCCN3CCOCC3)c3nc4ccccc4nc32)c1`, the IC50 in test [2] was > 10 µM (inactive); in test [3], above 10 µM. With `CCn1c(-c2c[nH]c3ccccc23)n[nH]c1=S`, the IC50 in test [2] is > 10 µM (inactive); in test [3], above 10 µM.

Regarding `Cc1cc2ncn(CC(O)COc3cccc(C(=O)O)c3)c2cc1C` (centres undefined), the figures for the IC50 in test [2] and in test [3] were > 10 µM (inactive) and above 10 µM, respectively.

For the compound `Cc1ccc(C(=O)NCc2occc2C(=O)O)o1`, the IC50 was > 10 µM (inactive) in test [2] and above 10 µM in test [3]. On to `c1ccc(COc2ccc(CN3CCN(c4ccccn4)CC3)cc2)cc1`, for which the IC50 in test [2] is > 10 µM (inactive); in test [3], above 10 µM. Regarding `COc1cccc(C(=O)N2CCN(C3CCC(c4ccccc4)CC3)CC2)c1OC` (centres undefined), the values for the 50% inhibitory concentration (IC50) in test [2] and in test [3] were 5.37 µM and 23.9 µM, respectively.

On to `Cc1ccc(C)c(C(=O)NCc2ccncc2)c1`, for which the IC50 was > 10 µM (inactive) in test [2] and above 10 µM in test [3]. On to `COc1ccc(-c2cc(N)n(S(=O)(=O)c3c(F)c(F)c(F)c(F)c3F)n2)cc1OC`, for which the IC50 is 2.5 µM (inactive) in test [2] and 1.08 µM in test [3]. `CCN(CC)c1nc2cc(OC)ccc2cc1C#N`: the IC50 is > 10 µM (inactive) in test [2] and above 10 µM in test [3].

Consider `Cn1nnc2cc(C(=O)Nc3cccnc3)ccc21`, for which the IC50 was > 10 µM (inactive) in test [2] and above 10 µM in test [3].

For `N#CC1=C(N)NC(SCc2ccc(F)cc2)=C(C#N)C12CCCCC2`, the IC50 is 4.84 µM in test [2] and 16.3 µM in test [3]. The corresponding values for `C=C(C)C1CC=C(CN2CC(C)OC(C)C2)CC1` (centres undefined) are 4.44 µM and above 10 µM.

On to `COCCCn1c2nc3ccccc3nc2c2c(=O)n(-c3ccccc3OC)cnc21`, for which the values for the IC50 in test [2] and in test [3] were > 10 µM (inactive) and above 10 µM, respectively. For the compound `Cc1ccc(OCC(O)CN2CCN(Cc3ccc4c(c3)OCO4)CC2)c(C)c1` (centres undefined), the IC50 was 2.35 µM in test [2] and above 10 µM in test [3].

As to `O=C(c1ccc(Cl)cc1Cl)N1CCC(c2nc3c(nnn3Cc3ccco3)c(=O)[nH]2)CC1`, the IC50 in test [2] was > 10 µM (inactive); in test [3] it was above 10 µM. With `Cc1ccc2cc(CN(CCO)Cc3nnnn3Cc3ccc(F)cc3)c(=O)[nH]c2c1`, the IC50 in test [2] is > 10 µM (inactive); in test [3], above 10 µM. As to `N=c1nc(N)nc2n1NC(c1ccc(F)cc1)=CS2`, the IC50 was > 10 µM (inactive) in test [2] and above 10 µM in test [3]. The corresponding values for `N#CC1=C2SCC(O)(c3ccccc3)N2C(=O)CC1c1ccccc1` (centres undefined) are > 10 µM (inactive) and above 10 µM. `COCCCNc1ccnc2c(Cl)cccc12`: the values for the IC50 in test [2] and in test [3] were > 10 µM (inactive) and above 10 µM, respectively. The corresponding values for `Cc1cc(=O)oc2c(CN3CCCCC3)c(O)c(Cl)cc12` are > 10 µM (inactive) and above 10 µM. The like results for `Cc1cc([N+](=O)[O-])c(-c2ccc(/C=N/n3cnnc3)o2)cc1Cl` were, in that order, 0.39 µM (inactive) and 0.134 µM. As to `CC(C)Oc1ccc(/C(O)=C2/C(=O)C(=O)N(CCN(C)C)C2c2ccco2)cc1` (centres undefined), the IC50 is > 10 µM (inactive) in test [2] and above 10 µM in test [3].

Turning to `O=C(O)c1cc(-c2ccc(/C=N/Nc3ccc(Cl)cc3)o2)ccc1Cl`, the half-maximal inhibitory concentration (IC50) in test [2] is 10.9 µM; in test [3] it was 16.4 µM.
